PubChem BioAssay AID2060607 (Molecular Pharmacology Branch, DTP, NCI, 2025)
Where “and” joins values, the source holds several entries; their conditions need not be identical. Equal entries are not always repeated.

Tested on: 876862-298-R-J1-PDC complex spheroids, viability % test/control
Experiment: Anticancer human tumor 876862-298-R-J1-PDC patient-derived endometrial carcinoma cell line growth inhibition [CLK]
Details: for viability, T/C: stronger effect = lower value
Source text: A high-throughput screen of multi-cell type tumor spheroids was designed to identify active combinations of […] and targeted small molecules. Complex spheroids include a stromal component modeled by human endothelial cells (HUVEC) and fibroblasts modeled by human mesenchymal stem cells (MSCs). The concentration ranges selected for each drug and investigational agent were based upon clinically achievable concentrations if the clinical Cmax of the agent was known.
Compounds. The drugs and investigational agents: cirtuvivint (SM08502; NSC835563), CC-671 (NSC850746), vemurafenib (NSC761431), tapotoclax (NSC804041), sotorasib (NSC818433), adagrasib (NSC831453), MRTX-1133 (NSC836407), BAY2416964 (NSC825713), copanlisib (NSC816437), inavolisib (NSC800729), abemaciclib (NSC768073), osimertinib (NSC779217), entinostat (NSC756642), eltanexor (KPT-8602, NSC794443), venetoclax (NSC766270), ceralasertib (NSC777638), bortezomib (NSC756655), olaparib (NSC753686), talazoparib (NSC767125), alisertib (NSC759677), peposertib (NSC802822), gemcitabine (NSC613327), 5-fluorouracil (NSC19893), SN-38 (NSC673596), oxaliplatin (NSC266046), paclitaxel (NSC125973), and doxorubicin (NSC123127), were obtained from the National Cancer Institute (NCI) Developmental Therapeutics Program Chemical Repository. The FDA-approved anticancer drug set is available from the Developmental Therapeutics Program at https://dtp.cancer.gov/organization/dscb/obtaining/available plates.htm. […] The stock solutions were prepared in dimethyl sulfoxide (DMSO, Sigma-Aldrich, St. Louis, MO, cat. D2650), except for the platinum complexes which were prepared in saline (Quality Biological, Gaithersburg, MD, cat. 114-055-101), at 800-fold the tested concentration and stored at -70 degrees C prior to their use. All drugs and investigational agents were tested over a range starting from a high concentration at or near the clinical Cmax and decreasing in half-log increments. If the clinical Cmax for an agent had not been determined, the highest concentration tested was 10 microM.
Cell Culture. All cells were maintained in an incubator at 37 degrees C and 5% CO2 with 95% humidity. The PDC lines were cultured according to standard operating procedures established by the NCI PDMR. Briefly, all PDCs were thawed and cultured in Matrigel-coated flasks prepared with a working solution of 1X Ham's F-12 nutrient mix, without supplementation (Invitrogen, Waltham, MA, cat. 11765054), 100 U/mL penicillin-streptomycin (Invitrogen, cat. 15140122), and 2.5% Matrigel (Corning Inc., Corning, NY, cat. 354248) for the first three passages. The 947758-054-R-J2-PDC line was cultured in 6B/Colon 1A media, which includes advanced DMEM/F-12 (Thermo Fisher Scientific, cat. 12634028), 10 mM HEPES (Thermo Fisher Scientific, cat. 15630080), 1X GlutaMAX supplement (Thermo Fisher Scientific, cat. 35050061), 0.1 mg/mL primocin (InvivoGen, cat. ant-pm-2), 10% defined fetal bovine serum, heat inactivated (HyClone Laboratories Inc., cat. SH30070.03HI), 1.25 mM N-Acetyl-L-cysteine (Sigma-Aldrich, cat. A9165), 10 mM nicotinamide (Sigma-Aldrich, cat. N0636), 1X B-27 supplement (Thermo Fisher Scientific, cat. 17504044), 1X N-2 supplement (Thermo Fisher Scientific, cat. 17502048), and 10 microM Y-27632 dihydrochloride (Tocris Bioscience, cat. 1254). The 876862-298-R-J1-PDC was cultured in 6E media, which includes all 6B/Colon 1A media components plus 50% L-WRN conditioned media (ATCC, cat. CRL-3276), 50 ng/mL recombinant human EGF recombinant protein (hEGF; Thermo Fisher Scientific, cat. PHG0311), 10 ng/mL recombinant human fibroblast growth factor 10 (hGFG-10; PeproTech, cat. 100-26), 1 ng/mL recombinant human fibroblast growth factor 2 (hFGF-2; PeproTech, cat. 100-18B), and 1 µM prostaglandin E2 (PGE2; Tocris, cat. 2296). The 227483-062-R1-J1-PDC line was cultured in Panc media, containing all 6E components except hFGF-2, with the addition of 500 nM SB-431542 (Selleckchem, cat. S1067) and 10 nM gastrin (Tocris, cat. 3006). […]
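Note: spheroids exposed to drugs for 7 days before readout.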
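Throughout, for viability, T/C: 100% = DMSO vehicle control wells.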

`CC(=O)O[C@H]1C(=O)[C@@]2(C)[C@H]([C@H](OC(=O)c3ccccc3)[C@]3(O)C[C@H](OC(=O)[C@H](O)[C@@H](NC(=O)c4ccccc4)c4ccccc4)C(C)=C1C3(C)C)[C@]1(OC(C)=O)CO[C@@H]1C[C@@H]2O` was tested, and the viability, T/C (compound 0.0316 µM) was 25.9% and 26.5%, the viability, T/C (compound 0.1 µM) was 23.7% and 22.9% and the viability, T/C (compound 0.316 µM) was 23% and 20%. For the same molecule, the viability, T/C (compound 1 µM) was 25.4% and 25.1%, the viability, T/C (compound 3.16 µM) was 29.2% and 23.1% and the viability, T/C (compound 10 µM) was 32.2% and 26.1%. For the same molecule, the IC50 (curve of compound) was less than 0.0316 µM.

`COc1ccc([C@@H](O)c2cc(-c3ncnc4cc(N5CCOCC5)ccc34)c(F)cc2Cl)nn1` was tested, and the viability, T/C (compound 0.0316 µM) was 109% and 103%, the viability, T/C (compound 0.1 µM) was 88.9% and 106% and the viability, T/C (compound 0.316 µM) was 108% and 101%. The viability, T/C (compound 1 µM) was 98.5% and 89.7%, the viability, T/C (compound 3.16 µM) was 73.1% and 69% and the viability, T/C (compound 10 µM) was 49.9% and 28.5%. The IC50 (curve of compound) was 9.98 µM and 5.39 µM.

With `COc1cccc2c1C(=O)c1c(O)c3c(c(O)c1C2=O)CC(O)(C(=O)CO)CC3OC1CC(N)C(O)C(C)O1` (stereo not drawn) the viability, T/C (compound 0.0316 µM) was 41.8% and 33.2%, the viability, T/C (compound 0.1 µM) was 16.9% and 13.5% and the viability, T/C (compound 0.316 µM) was 7.66% and 6.87%. For the same molecule, the viability, T/C (compound 1 µM) was 7.07% and 7.16%, the viability, T/C (compound 3.16 µM) was 0.89% and 0.78% and the viability, T/C (compound 10 µM) was 4.03% and 4%. The IC50 (curve of compound) was less than 0.0316 µM.

`C=CC(=O)N1CCN(c2nc(=O)n(-c3c(C)ccnc3C(C)C)c3nc(-c4c(O)cccc4F)c(F)cc23)C(C)C1` (stereo not drawn) + CN1CCN(c2cc(C(=O)Nc3cc4cc(-c5cnn(C)c5)ccc4cn3)ccn2)CC1 gave an IC50 (curve of first compound, second compound 0.0316 µM) greater than 10 µM, an IC50 (curve of first compound, second compound 0.1 µM) of 1.72 µM and an IC50 (curve of first compound, second compound 0.316 µM) of less than 0.0316 µM. It also gave an IC50 (curve of first compound, second compound 1 µM) of less than 0.0316 µM, an IC50 (curve of first compound, second compound 3.16 µM) of less than 0.0316 µM and an IC50 (curve of first compound, second compound 10 µM) of less than 0.0316 µM. The viability, T/C (second compound 0.0316 µM, first compound 0.0316 µM) was 80.7%, the viability, T/C (second compound 0.0316 µM, first compound 0.1 µM) was 90.6% and the viability, T/C (second compound 0.0316 µM, first compound 0.316 µM) was 91%. It also gave a viability, T/C (second compound 0.0316 µM, first compound 1 µM) of 96.3%, a viability, T/C (second compound 0.0316 µM, first compound 3.16 µM) of 99% and a viability, T/C (second compound 0.0316 µM, first compound 10 µM) of 58.4%. For the same molecule, the viability, T/C (second compound 0.1 µM, first compound 0.0316 µM) was 57.9%, the viability, T/C (second compound 0.1 µM, first compound 0.1 µM) was 47.9% and the viability, T/C (second compound 0.1 µM, first compound 0.316 µM) was 49.9%. It also gave a viability, T/C (second compound 0.1 µM, first compound 1 µM) of 57.7%, a viability, T/C (second compound 0.1 µM, first compound 3.16 µM) of 45.7% and a viability, T/C (second compound 0.1 µM, first compound 10 µM) of 30.3%. It also gave a viability, T/C (second compound 0.316 µM, first compound 0.0316 µM) of 5.51%, a viability, T/C (second compound 0.316 µM, first compound 0.1 µM) of 4.35% and a viability, T/C (second compound 0.316 µM, first compound 0.316 µM) of 4.39%. It also gave a viability, T/C (second compound 0.316 µM, first compound 1 µM) of 4.13%, a viability, T/C (second compound 0.316 µM, first compound 3.16 µM) of 4.65% and a viability, T/C (second compound 0.316 µM, first compound 10 µM) of 2.26%. The viability, T/C (second compound 1 µM, first compound 0.0316 µM) was 0.86%, the viability, T/C (second compound 1 µM, first compound 0.1 µM) was 1.32% and the viability, T/C (second compound 1 µM, first compound 0.316 µM) was 1.28%. It also gave a viability, T/C (second compound 1 µM, first compound 1 µM) of 2.28%, a viability, T/C (second compound 1 µM, first compound 3.16 µM) of 4.17% and a viability, T/C (second compound 1 µM, first compound 10 µM) of 2.16%. It also gave a viability, T/C (second compound 3.16 µM, first compound 0.0316 µM) of 1.53%, a viability, T/C (second compound 3.16 µM, first compound 0.1 µM) of 2.07% and a viability, T/C (second compound 3.16 µM, first compound 0.316 µM) of 2.2%. It also gave a viability, T/C (second compound 3.16 µM, first compound 1 µM) of 2.58%, a viability, T/C (second compound 3.16 µM, first compound 3.16 µM) of 3.3% and a viability, T/C (second compound 3.16 µM, first compound 10 µM) of 2.74%. It also gave a viability, T/C (second compound 10 µM, first compound 0.0316 µM) of 0.76%, a viability, T/C (second compound 10 µM, first compound 0.1 µM) of 1.59% and a viability, T/C (second compound 10 µM, first compound 0.316 µM) of 1.62%. It also gave a viability, T/C (second compound 10 µM, first compound 1 µM) of 2.38%, a viability, T/C (second compound 10 µM, first compound 3.16 µM) of 2.32% and a viability, T/C (second compound 10 µM, first compound 10 µM) of 2.42%.
